Reference: US20220401448A1, “Pharmaceutical Compositions Comprising an Inhibitor of a Histon-deacetylase (HDACi) and an Agonist of Toll-like-receptor 7 and/or 8 (TLR7 and/or TLR8) and Their Use in the Treatment of Cancer” (priority 2019, published 2022)
In brackets after ≈: the same amount, converted by molar mass. Read-outs that look alike come from different tables or passages of the source.

Assays:
[1] = system: NFkB activity; assay: NFkB activity by luciferase assay (NanoLuc reporter vector with NF-κB response element); type: cell-based
Protocol: In order to make conclusions about NFkB activation, the NFkB activity was analyzed by luciferase assay. The NanoLuc® Reporter Vector with NF-κB Response Element from Promega was used for this purpose.
The pNL3.2.NF-κB-RE[NlucP/NF-κB-RE/Hygro] Vector pNL3.2. (GenBank® Accession Number JQ513377) contains five copies of an NF-κB response element (NF-κB-RE) that drives transcription of a destabilized form of NanoLuc® luciferase, an engineered small (23.3 kDa) luciferase fusion protein. The NlucP reporter consists of NanoLuc® luciferase with a C-terminal fusion to PEST, a protein destabilization domain, which responds more quickly and with greater magnitude to changes in transcriptional activity than unmodified NanoLuc® luciferase. NanoLuc® (Nluc) luciferase is a small enzyme (19.1 kDa) engineered for optimal performance as a luminescent reporter. The luminescent reaction is ATP-independent and designed to suppress background luminescence for maximal assay sensitivity.
Without stimulation we detect about 6000 RLU. […] In summary, loss of NFkB was confirmed not only by Western Blot, but also in this functional test by loss of NFkB functionality using the reporter vector with NF-κB response element.

[2] = system: SKOV3 ovarian cancer cell line; assay: MTT proliferation assay, single drugs, SKOV3; type: cell-based; settings: Homo sapiens
[3] = system: OvCar3 ovarian cancer cell line; assay: Individual effects (IC50), OvCar3; type: cell-based; settings: Homo sapiens, OVCAR-3
[4] = system: Peripheral Blood Mononuclear Cells (PBMC); assay: Induction of apoptosis in PBMC from healthy volunteers; settings: 24 h of drug exposure, 1×IC50 (SKOV3 values)
Excerpt: The drug doses (1×IC50) employed for both compound classes were those obtained in SKOV3 cells.

[5] = system: OvCa2810 primary ovarian cancer cells; assay: Individual effects (IC50), OvCa2810; type: cell-based; settings: OvCa2810, single drug
[6] = system: OvCa236 primary ovarian cancer cells; assay: Individual effects (IC50), OvCa236; type: cell-based; settings: OvCa236, single drug
[7] = common vehicles; cited from earlier work
[8] = system: HERV-V1 and V2; assay: ChIP (anti-H3K9ac) with qPCR of HERV-V1 and V2; type: cell-based; settings: SKOV3, OvCar3, OvCa236
Protocol: While the data concerning the transcriptional upregulation of HERV-V1/V2 upon HDAC inhibition were confirmed, it is unclear whether this is a direct effect of the drugs on epigenetic marks proximate to sites of HERV-V1/V2 integration. For this reason, ChIP-analyses of relevant histones were performed (ChIP=chromatin immunoprecipitation, was performed as described in Nakato R. et al. “Methods for ChIP-seq analysis: A practical workflow and advanced applications”, Methods 2020, doi.org/10.1016/j.ymeth.2020.03.005). Histone H3 along with H2A, H2B and H4 is involved in the structure of chromatin in eukaryotic cells. Histone H3 can undergo several different types of epigenetic modifications that influence cellular processes. These modifications include acetylation, phosphorylation, methylation, ubiquitination, and ADP-ribosylation and occur on the N-terminal tail domains of histone H3. […] In most species, histone H3 is primarily acetylated at lysine 9, 14, 18, and 27. […] We analyzed not only the ovarian cell lines SKOV3 and OVCar3, but also the primary cancer cell line OvCa236 derived from a patient. […] We therefore performed Immunoprecipitation using a anti-histone H3K9ac (Acetyl H3K9) polyclonal antibody and performed quantitative PCT (qPCR) as already described in Example 2.
HERV-V1 and V2, respectively, were analyzed separately. […]

[9] = system: SKOV3 cells; assay: Dose-response of HERV transcription by qPCR, SKOV3; settings: FIG. 9
Excerpt: The term ΔCt reflects the difference (Δ) in cycle (C) thresholds (t). […] Measurement of specific RNA transcripts like HERV-V1/V2 by qPCR is usually performed in relation to the standard 18S, more or less transcription products are expressed in + or −ΔCt. Furthermore, differences in ΔCt between treated and untreated cells were shown as ΔΔCt.

[10] = system: SKOV3^WT ovarian carcinoma cell line; assay: Screening of SKOV3^WT for HERV expression using qPCR; type: cell-based; settings: for ΔCt HERV Henv: untreated 15.87 ± 0.56; for ΔCt HERV KISD: untreated 17.66 ± 0.23; for ΔCt HERV Kpol: untreated 18.16 ± 0.48; for ΔCt HERV Kenv: untreated 18.49 ± 0.45; for ΔCt HERV IDDMK1.2: untreated 18.68 ± 0.41; for ΔCt KERV Kseminoma: untreated 18.90 ± 0.41; for ΔCt HERV V3.1: untreated 19.32 ± 0.41; for ΔCt HERV Kgag: untreated 19.47 ± 0.58; for ΔCt HERV Fpol: untreated 19.69 ± 0.37; for ΔCt HERV KLTR: untreated 19.91 ± 0.60; for ΔCt HERV Eenv: untreated 20.10 ± 0.51; for ΔCt HERV Wprt: untreated 20.48 ± 0.72; for ΔCt HERV FRD1: untreated 21.71 ± 0.60; for ΔCt HERV Wenv: untreated 22.12 ± 0.53; for ΔCt HERV WE1: untreated 22.12 ± 0.62; for ΔCt HERV V1: untreated 22.95 ± 1.89; for ΔCt HERV V2: untreated 23.11 ± 2.07; for ΔCt HERV Penv: untreated 25.26 ± 0.48; for ΔCt HERV Pgag: untreated 25.33 ± 0.31; for ΔCt HERV HC2pol: untreated 25.99 ± 0.57; for ΔCt HERV Ppol: untreated 26.05 ± 0.31; for ΔCt HERV C: untreated 26.20 ± 0.36; for ΔCt HERV MER34.1: untreated 27.96 ± 0.43; for ΔCt HERV T: untreated 28.36 ± 0.87; for ΔCt HERV L: untreated 28.42 ± 1.52; for ΔCt HERV Fc1: untreated 29.68 ± 0.57; for ΔCt HERV Spol: untreated 32.00 ± 0.73
Protocol: In particular, the SKOV3^WT ovarian carcinoma cell line was screened for HERV expression using quantitative PCT (qPCR). […] Gene expression was considered enforced when more than 3 PCR-cycles of difference (Untreated−Treated) was calculated (n≥3).
18S ribosomal RNA serves as standard.

[11] = system: SKOV3^WT xenograft; settings: i.p. Romidepsin 1 mg/kg, Vesatolimod 5 mg/kg, four times at 3 day intervals
Protocol: 1 mm^3 tumor pieces were implanted subcutaneosly into six to eight week old female NMRI nude mice by minimal operative intervention. […] Three days after mice were intraperitoneally treated at doses of 1 mg/kg and 5 mg/kg body weight four times at 3 day intervals for 12 consecutive days.

[12] = system: OvCa28 primary ovarian cancer cells; assay: MTT proliferation assay, single drugs, OvCa28; type: cell-based; settings: for IC50: read-out: IC50 (cell growth); for resistance of primary ovarian cancer cells compared to SKOV3: OvCa28 IC50 vs SKOV3 IC50
Protocol: OvCa28 primary ovarian cancer cells were isolated from a pretreated patient (patient number 28). These primary ovarian cancer cells were treated individually with either the HDAC inhibitor Romidepsin or the TLR7 agonist Vesatolimod as shown in FIG. 4. Cell growth was determined by the MTT proliferation assay.

[13] = SK-OV-3, SKOV3, single drug, read-out: IC50
[14] = OvCar3, single drug, read-out: IC50

Molecule | IC50 [2, 13] | IC50 [3, 14] | rate of apoptosis [4] | IC50 [5] | IC50 [6] | dissolution [7] | ΔCt HERV Henv ([10]; 1x drug) | ΔCt HERV KISD ([10]; 1x drug) | ΔCt HERV Kpol ([10]; 1x drug) | ΔCt HERV Kenv ([10]; 1x drug) | ΔCt HERV IDDMK1.2 ([10]; 1x drug) | ΔCt KERV Kseminoma ([10]; 1x drug) | ΔCt HERV V3.1 ([10]; 1x drug) | ΔCt HERV Kgag ([10]; 1x drug) | ΔCt HERV Fpol ([10]; 1x drug) | ΔCt HERV KLTR ([10]; 1x drug) | ΔCt HERV Eenv ([10]; 1x drug) | ΔCt HERV Wprt ([10]; 1x drug) | ΔCt HERV FRD1 ([10]; 1x drug) | ΔCt HERV Wenv ([10]; 1x drug) | further results
TNFα |  |  |  |  |  |  |  |  |  |  |  |  |  |  |  |  |  |  |  |  | response of NF-κB reporter vector ([1]; positive control, inflammatory stimulation): 20.000 RLU
CC(C)Cn1cnc2c(N)nc3ccccc3c21 [Imiquimod, imiquimod] | 15 µM | 23 µM | about 3% | 500 µM | 500 µM | difficult to dissolve |  |  |  |  |  |  |  |  |  |  |  |  |  |  | 
O=C(CCCCCCC(=O)Nc1ccccc1)NO [Vorinostat, vorinostat] |  |  | about 6% |  |  |  | 15.51 ± 0.31 | 17.71 ± 0.19 | 18.81 ± 0.30 | 19.26 ± 1.00 | 18.29 ± 0.29 | 20.25 ± 0.18 | 19.22 ± 0.33 | 19.17 ± 0.41 | 20.37 ± 0.49 | 19.31 ± 0.42 | 20.08 ± 0.25 | 20.80 ± 0.34 | 22.51 ± 0.45 | 22.03 ± 0.34 | expression of HERV-V1 and V2 transcripts after H3K9ac immunoprecipitation [8]: enhanced; expression of HERV-V1 and V2 [9]: increased; ΔCt HERV WE1 ([10]; 1x drug): 22.18 ± 0.32; ΔCt HERV V1 ([10]; 1x drug): 15.48 ± 0.78; ΔCt HERV V2 ([10]; 1x drug): 15.46 ± 0.79; ΔCt HERV Penv ([10]; 1x drug): 25.39 ± 0.49; ΔCt HERV Pgag ([10]; 1x drug): 25.45 ± 0.11; ΔCt HERV HC2pol ([10]; 1x drug): 25.52 ± 0.39; ΔCt HERV Ppol ([10]; 1x drug): 26.34 ± 0.33; ΔCt HERV C ([10]; 1x drug): 27.84 ± 0.59; ΔCt HERV MER34.1 ([10]; 1x drug): 26.62 ± 0.62; ΔCt HERV T ([10]; 1x drug): 28.24 ± 0.72; ΔCt HERV L ([10]; 1x drug): 28.08 ± 0.90; ΔCt HERV Fc1 ([10]; 1x drug): 30.36 ± 0.84; ΔCt HERV Spol ([10]; 1x drug): 30.80 ± 0.75; HERV-V2 expression levels ([10]; SKOV3, qPCR, FIG. 1B): increased
CCCCOc1nc(N)c2c(n1)N(Cc1cccc(CN3CCCC3)c1)CC(=O)N2 [Vesatolimod, vesatolimod] | 39 µM | 32 µM | about 8% | 40 µM | 32 µM | better dissolution profile in common vehicles |  |  |  |  |  |  |  |  |  |  |  |  |  |  | NFkB activity (reporter) ([1]; in both cell lines, OvCar 3 and SKOV3, without stimulation about 6000 RLU): slightly reduced activity; IC50 ([2]; SK-OV-3, SKOV3, single drug, MTT, read-out: IC50 (cell growth)): 12.5 µg/mL; total tumor volume [11]: did reduce the total tumor volume; IC50 ([12]; OvCa28, single drug, MTT): 30 µg/mL (≈ 73.1 µM); resistance of primary ovarian cancer cells compared to SKOV3 [12]: ~2 fold
C/C=C1\NC(=O)[C@H]2CSSCC/C=C/[C@H](CC(=O)N[C@H](C(C)C)C(=O)N2)OC(=O)[C@H](C(C)C)NC1=O [Romidepsin, romidepsin] |  |  | about 3% | 0.006 µM | 0.003 µM |  | 14.87 ± 0.30 | 17.10 ± 0.35 | 18.19 ± 0.51 | 18.48 ± 0.26 | 17.66 ± 0.27 | 19.70 ± 0.76 | 18.63 ± 0.36 | 18.57 ± 0.43 | 19.67 ± 0.22 | 21.02 ± 1.95 | 19.99 ± 0.51 | 20.97 ± 1.15 | 22.07 ± 0.64 | 22.33 ± 0.33 | IC50 ([2]; SK-OV-3): 0.004 µM; IC50 ([2]; SK-OV-3, read-out: IC50 (cell growth)): 0.004 µg/mL; IC50 [3]: 0.007 µM; resistance of primary ovarian cancer cells compared to SKOV3 [12]: ~188 fold; IC50 [12]: 0.75 µg/mL (≈ 1.39 µM); ΔCt HERV WE1 ([10]; 1x drug): 21.92 ± 1.02; ΔCt HERV V1 ([10]; 1x drug): 15.30 ± 0.36; ΔCt HERV V2 ([10]; 1x drug): 15.24 ± 0.25; ΔCt HERV Penv ([10]; 1x drug): 25.46 ± 0.60; ΔCt HERV Pgag ([10]; 1x drug): 26.02 ± 0.50; ΔCt HERV HC2pol ([10]; 1x drug): 24.85 ± 0.35; ΔCt HERV Ppol ([10]; 1x drug): 26.55 ± 0.39; ΔCt HERV C ([10]; 1x drug): 26.79 ± 0.97; ΔCt HERV MER34.1 ([10]; 1x drug): 25.78 ± 0.13; ΔCt HERV T ([10]; 1x drug): 29.31 ± 0.84; ΔCt HERV L ([10]; 1x drug): 27.62 ± 0.95; ΔCt HERV Fc1 ([10]; 1x drug): 28.17 ± 3.80; ΔCt HERV Spol ([10]; 1x drug): 31.04 ± 1.11; ΔCt HERV P4.6 ([10]; 1x drug, untreated […]): 31.65 ± 1.16
